For assay [1], the target named is Serine/threonine-protein kinase Chk2 (Homo sapiens) (UniProt O96017). Kind of assay: Selectivity interaction (Kinase panel (Z-LYTE Assay)) EUB0001632a CHEK2. Conditions: at 10 µM.
For assay [2], the target named is T1, Serine/threonine-protein kinase ULK1 (Homo sapiens) (UniProt O75385).
T1 sequence (whole entry): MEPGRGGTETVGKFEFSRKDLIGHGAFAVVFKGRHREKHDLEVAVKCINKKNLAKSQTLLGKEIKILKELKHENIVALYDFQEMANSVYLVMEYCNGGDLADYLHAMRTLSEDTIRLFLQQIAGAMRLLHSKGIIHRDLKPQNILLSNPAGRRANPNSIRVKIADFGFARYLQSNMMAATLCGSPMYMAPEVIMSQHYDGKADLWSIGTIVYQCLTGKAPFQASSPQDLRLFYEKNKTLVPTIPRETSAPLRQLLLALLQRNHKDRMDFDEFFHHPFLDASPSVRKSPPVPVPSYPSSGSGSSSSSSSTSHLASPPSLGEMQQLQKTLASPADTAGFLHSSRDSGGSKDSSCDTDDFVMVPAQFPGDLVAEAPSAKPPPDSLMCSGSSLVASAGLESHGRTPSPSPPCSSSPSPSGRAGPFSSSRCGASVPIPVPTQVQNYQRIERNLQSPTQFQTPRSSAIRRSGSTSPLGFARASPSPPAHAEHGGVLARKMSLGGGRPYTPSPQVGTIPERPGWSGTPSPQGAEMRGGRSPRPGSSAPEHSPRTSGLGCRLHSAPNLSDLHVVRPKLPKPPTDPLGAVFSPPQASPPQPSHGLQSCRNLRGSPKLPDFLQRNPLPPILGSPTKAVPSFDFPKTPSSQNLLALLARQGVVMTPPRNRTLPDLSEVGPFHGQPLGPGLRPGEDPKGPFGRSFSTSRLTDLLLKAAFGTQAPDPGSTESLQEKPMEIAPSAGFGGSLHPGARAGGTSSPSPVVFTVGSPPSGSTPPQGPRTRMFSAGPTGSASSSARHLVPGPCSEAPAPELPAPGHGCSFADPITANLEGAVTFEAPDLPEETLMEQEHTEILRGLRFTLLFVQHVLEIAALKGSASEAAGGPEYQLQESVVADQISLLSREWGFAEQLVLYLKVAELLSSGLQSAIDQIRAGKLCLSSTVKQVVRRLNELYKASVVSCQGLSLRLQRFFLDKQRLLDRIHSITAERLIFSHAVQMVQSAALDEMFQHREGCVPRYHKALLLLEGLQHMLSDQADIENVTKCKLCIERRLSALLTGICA
Kind of assay: Selectivity interaction (KinomeScan (DiscoverX)) EUB0000607a ULK1. Conditions: at 10 µM.

Assay [3] addresses 5'-AMP-activated protein kinase catalytic subunit alpha-2 (Homo sapiens) (UniProt P54646). As to the kind of experiment: Selectivity interaction (KinomeScan (DiscoverX)) EUB0000607a PRKAA2. Conditions: at 10 µM.
The target of assay [4] is T2, Mitogen-activated protein kinase kinase kinase 2 (Homo sapiens) (UniProt Q9Y2U5).
T2 sequence (whole entry): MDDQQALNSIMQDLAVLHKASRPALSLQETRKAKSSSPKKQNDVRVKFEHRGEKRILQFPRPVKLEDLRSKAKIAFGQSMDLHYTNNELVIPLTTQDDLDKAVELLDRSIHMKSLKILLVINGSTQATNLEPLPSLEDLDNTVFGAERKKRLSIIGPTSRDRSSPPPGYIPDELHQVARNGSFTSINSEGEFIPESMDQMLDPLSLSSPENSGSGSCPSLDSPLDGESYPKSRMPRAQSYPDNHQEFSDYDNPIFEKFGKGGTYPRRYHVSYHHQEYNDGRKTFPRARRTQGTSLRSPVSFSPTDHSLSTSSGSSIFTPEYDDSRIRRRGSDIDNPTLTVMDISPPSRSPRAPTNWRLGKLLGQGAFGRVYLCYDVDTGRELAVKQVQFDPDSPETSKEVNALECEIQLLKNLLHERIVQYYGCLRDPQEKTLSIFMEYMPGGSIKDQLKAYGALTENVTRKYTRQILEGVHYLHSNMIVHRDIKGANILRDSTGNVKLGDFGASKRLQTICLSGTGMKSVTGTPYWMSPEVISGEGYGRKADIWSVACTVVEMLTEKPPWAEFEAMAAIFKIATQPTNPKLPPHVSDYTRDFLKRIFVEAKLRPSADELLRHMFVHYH
As to the kind of experiment: Selectivity interaction (KinomeScan (DiscoverX)) EUB0000655a MAP3K2. Conditions: at 10 µM.

Assay [5] is described as follows: Selectivity interaction (KinomeScan (DiscoverX)) EUB0000655a CDK2H. The note with it: at 10 µM.
Assay [6] has as its target Mitogen-activated protein kinase kinase kinase 9 (Homo sapiens) (UniProt P80192). As to the kind of experiment: Selectivity interaction (KinomeScan (DiscoverX)) EUB0001079a MAP3K9. Conditions: at 1 µM.
The target in assay [7] is T3, Serine/threonine-protein kinase greatwall (Homo sapiens) (UniProt Q96GX5).
T3 sequence (whole entry): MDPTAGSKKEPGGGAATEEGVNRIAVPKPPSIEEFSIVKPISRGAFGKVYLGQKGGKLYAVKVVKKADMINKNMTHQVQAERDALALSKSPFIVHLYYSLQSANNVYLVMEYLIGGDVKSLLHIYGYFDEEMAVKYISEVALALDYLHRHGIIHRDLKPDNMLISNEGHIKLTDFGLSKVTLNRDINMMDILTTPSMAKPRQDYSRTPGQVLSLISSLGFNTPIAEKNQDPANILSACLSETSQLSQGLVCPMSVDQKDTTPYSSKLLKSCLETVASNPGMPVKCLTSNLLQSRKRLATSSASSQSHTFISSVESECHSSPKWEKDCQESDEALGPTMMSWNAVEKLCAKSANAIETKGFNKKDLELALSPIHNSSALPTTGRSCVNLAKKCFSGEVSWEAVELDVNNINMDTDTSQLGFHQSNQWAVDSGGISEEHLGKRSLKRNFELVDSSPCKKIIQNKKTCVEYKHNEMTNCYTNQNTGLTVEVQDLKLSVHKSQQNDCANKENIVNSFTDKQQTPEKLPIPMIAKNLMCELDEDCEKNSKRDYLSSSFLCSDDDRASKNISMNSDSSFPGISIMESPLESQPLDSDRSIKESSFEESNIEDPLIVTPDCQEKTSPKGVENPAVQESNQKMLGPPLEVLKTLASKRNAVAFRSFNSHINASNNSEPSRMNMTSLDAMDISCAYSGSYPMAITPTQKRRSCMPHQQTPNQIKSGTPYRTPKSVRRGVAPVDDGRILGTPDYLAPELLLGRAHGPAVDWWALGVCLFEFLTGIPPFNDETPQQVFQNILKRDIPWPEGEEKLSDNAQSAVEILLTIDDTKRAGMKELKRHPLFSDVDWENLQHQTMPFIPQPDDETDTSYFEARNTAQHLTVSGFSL
As to the kind of experiment: Selectivity interaction (ActivX KiNativ screen (kinase selectivity in THP-1 cell lysates)) EUB0000639a MASTL. Format: subcellular. The note with it: lysate, at 5 µM.

In assay [8] the target is Serine/threonine-protein kinase 32A (Homo sapiens) (UniProt Q8WU08). Kind of assay: Selectivity interaction (KinomeScan (DiscoverX)) EUB0001049a STK32A. Conditions: at 1 µM.
Sequence of Serine/threonine-protein kinase 32A (Homo sapiens) (Q8WU08 whole entry): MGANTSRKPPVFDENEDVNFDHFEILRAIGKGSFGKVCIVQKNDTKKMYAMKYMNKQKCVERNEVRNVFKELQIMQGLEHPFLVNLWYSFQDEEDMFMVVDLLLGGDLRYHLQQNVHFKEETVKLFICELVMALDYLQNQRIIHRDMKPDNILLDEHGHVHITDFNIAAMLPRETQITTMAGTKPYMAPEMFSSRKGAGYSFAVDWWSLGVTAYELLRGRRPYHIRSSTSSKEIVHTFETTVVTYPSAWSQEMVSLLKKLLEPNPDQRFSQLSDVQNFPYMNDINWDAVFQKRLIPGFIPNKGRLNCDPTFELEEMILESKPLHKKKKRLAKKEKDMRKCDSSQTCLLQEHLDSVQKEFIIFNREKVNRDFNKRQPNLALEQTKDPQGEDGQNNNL
The target in assay [9] is Serine/threonine-protein kinase NIM1 (Homo sapiens, UniProt Q8IY84). As to the kind of experiment: Selectivity interaction (KinomeScan (DiscoverX)) EUB0000695a NIM1K. Conditions: at 100 nM.
Sequence of Serine/threonine-protein kinase NIM1 (Q8IY84 whole entry): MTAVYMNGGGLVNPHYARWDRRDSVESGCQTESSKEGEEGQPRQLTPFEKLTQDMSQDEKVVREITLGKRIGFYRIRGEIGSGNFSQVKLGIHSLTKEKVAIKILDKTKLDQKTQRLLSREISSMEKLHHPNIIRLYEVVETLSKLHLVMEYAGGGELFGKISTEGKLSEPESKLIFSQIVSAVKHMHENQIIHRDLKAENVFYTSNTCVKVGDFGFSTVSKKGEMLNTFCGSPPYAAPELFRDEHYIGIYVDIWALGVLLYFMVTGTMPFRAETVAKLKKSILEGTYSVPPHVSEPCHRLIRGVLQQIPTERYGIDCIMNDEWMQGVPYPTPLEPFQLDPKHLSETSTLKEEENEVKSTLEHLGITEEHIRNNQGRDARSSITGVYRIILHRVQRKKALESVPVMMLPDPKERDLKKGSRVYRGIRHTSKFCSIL

This is an account of results in ChEMBL document CHEMBL5465560, “Selectivity Literature for EUbOPEN Chemogenomic Library” (2024).

Structures are written as SMILES.

Sequence of Mitogen-activated protein kinase kinase kinase 9 (Homo sapiens) (P80192 whole entry, looked up): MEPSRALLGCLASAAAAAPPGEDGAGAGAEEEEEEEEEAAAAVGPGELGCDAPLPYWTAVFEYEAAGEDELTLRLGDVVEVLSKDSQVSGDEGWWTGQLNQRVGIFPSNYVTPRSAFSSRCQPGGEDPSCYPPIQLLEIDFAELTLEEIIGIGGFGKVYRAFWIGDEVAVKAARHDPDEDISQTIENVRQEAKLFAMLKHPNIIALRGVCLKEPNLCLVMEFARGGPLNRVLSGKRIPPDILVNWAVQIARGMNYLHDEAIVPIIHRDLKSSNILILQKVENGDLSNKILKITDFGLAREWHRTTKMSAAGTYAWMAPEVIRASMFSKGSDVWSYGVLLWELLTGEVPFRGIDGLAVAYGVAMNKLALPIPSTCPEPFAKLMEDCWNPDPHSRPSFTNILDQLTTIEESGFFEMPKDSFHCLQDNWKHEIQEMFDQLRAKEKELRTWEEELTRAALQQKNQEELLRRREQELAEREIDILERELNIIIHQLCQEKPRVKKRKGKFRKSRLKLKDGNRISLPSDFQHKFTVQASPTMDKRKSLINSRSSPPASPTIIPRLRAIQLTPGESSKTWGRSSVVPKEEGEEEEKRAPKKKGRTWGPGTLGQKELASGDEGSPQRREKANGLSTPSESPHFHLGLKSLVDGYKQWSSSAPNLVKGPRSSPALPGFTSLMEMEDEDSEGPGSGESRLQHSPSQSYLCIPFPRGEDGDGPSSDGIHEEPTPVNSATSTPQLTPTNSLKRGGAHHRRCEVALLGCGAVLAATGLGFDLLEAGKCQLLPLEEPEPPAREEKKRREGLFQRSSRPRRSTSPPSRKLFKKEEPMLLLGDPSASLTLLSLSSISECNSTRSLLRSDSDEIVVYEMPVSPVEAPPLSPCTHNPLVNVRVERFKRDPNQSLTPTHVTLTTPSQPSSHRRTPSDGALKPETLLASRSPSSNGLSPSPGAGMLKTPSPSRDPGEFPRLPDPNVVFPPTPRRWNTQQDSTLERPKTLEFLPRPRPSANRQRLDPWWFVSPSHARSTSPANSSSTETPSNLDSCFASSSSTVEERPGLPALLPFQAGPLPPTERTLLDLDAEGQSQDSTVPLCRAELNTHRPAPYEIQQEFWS
Sequence of 5'-AMP-activated protein kinase catalytic subunit alpha-2 (Homo sapiens) (P54646 whole entry, looked up): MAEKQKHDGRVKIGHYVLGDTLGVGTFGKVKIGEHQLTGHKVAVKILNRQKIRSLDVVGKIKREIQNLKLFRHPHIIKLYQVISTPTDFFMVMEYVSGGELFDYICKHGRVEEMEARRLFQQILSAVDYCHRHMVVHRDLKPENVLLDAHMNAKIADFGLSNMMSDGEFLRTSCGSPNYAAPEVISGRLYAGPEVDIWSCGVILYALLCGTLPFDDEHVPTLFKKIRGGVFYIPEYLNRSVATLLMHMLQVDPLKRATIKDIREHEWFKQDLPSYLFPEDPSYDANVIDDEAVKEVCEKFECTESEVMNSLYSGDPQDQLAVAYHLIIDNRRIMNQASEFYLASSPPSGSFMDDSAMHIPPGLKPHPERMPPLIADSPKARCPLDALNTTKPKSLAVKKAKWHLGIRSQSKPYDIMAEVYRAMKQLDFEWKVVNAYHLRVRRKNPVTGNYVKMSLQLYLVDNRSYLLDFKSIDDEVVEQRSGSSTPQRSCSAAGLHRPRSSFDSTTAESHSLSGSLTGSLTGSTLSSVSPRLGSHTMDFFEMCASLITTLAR
Sequence of Serine/threonine-protein kinase Chk2 (Homo sapiens) (O96017 whole entry): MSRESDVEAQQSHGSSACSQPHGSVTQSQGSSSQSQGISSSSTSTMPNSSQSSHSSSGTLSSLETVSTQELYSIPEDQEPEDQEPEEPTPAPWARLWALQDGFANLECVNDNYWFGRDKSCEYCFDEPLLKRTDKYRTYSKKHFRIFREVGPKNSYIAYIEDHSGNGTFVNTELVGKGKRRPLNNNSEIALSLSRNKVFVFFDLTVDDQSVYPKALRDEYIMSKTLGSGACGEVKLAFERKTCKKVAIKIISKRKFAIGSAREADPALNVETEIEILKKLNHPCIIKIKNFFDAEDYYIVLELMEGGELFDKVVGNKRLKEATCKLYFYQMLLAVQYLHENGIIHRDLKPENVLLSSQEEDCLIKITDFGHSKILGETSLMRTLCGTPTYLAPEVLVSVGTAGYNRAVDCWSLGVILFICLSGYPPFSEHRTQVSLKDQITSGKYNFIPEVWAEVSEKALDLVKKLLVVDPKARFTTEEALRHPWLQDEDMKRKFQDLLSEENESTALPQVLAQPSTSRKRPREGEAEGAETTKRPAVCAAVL

Take `Cn1cc(-n2cnc3c(NCc4nc5cc(Cl)c(Cl)cc5[nH]4)nc(N4CCOCC4)nc32)cn1`: in [1], the % of control was determined as 12.8%.
Regarding `CNC(=O)Nc1ccc(-c2nc(N3CC4CCC(C3)O4)c3cnn(C4CCC5(CC4)OCCO5)c3n2)cc1`, the results for the % of control in assay [2] and in [3] were 100% and 93%, respectively.
As for `CN(C)CCOc1ccc(-c2nc(-c3ccncc3)c(-c3ccc4c(c3)CC/C4=N\O)[nH]2)cc1`, the % of control came to 69% in [4] and 86% in assay [5].
Compound `Nc1cnc(N2CCc3cc(S(=O)(=O)Nc4c(F)cc(Cl)cc4F)cc(N4CCCC4=O)c32)nc1` [TP-020n] showed a % of control in assay [6] of 100%.
In assay [7], `CC[C@@H]1[C@H](F)C(=O)N[C@@H]1COc1nccc2cc(C(N)=O)c(OC)cc12` [ZIMLOVISERTIB] returned a % of inhibition of 77.2%.
`COc1cc(Nc2nc(C)cc(-c3cnn4nc(OC)ccc34)n2)cc(C(F)(F)F)c1` had a % of control in assay [8] of 63%.
In the case of `Cc1cc(F)c(C(=O)Nc2cccc(-c3nncn3C(C)C)n2)cc1-n1cnc(C2CC2)c1`, the % of control in assay [9] stood at 84%.
